Measured values as given in ChEMBL document CHEMBL1153786, “Cardenolide glycosides of Thevetia peruviana and triterpenoid saponins of Sapindus emarginatus as TRAIL resistance-overcoming compounds” (2009).
Calls of active or inactive are those of the source. The rule behind the calls is not given here.

Experiments:
Type in all cases: functional
AGS [1] = assay: Cytotoxicity against human TRAIL-resistant AGS cells at 27.1 nM after 24 hrs by FMCA in presence of TRAIL
AGS [2] = assay: Cytotoxicity against human TRAIL-resistant AGS cells after 24 hrs by FMCA in presence of TRAIL
AGS [3] = assay: Cytotoxicity against human TRAIL-resistant AGS cells at 29.2 nM after 24 hrs by FMCA in presence of TRAIL
AGS [4] = assay: Cytotoxicity against human TRAIL-resistant AGS cells at 29.2 nM after 24 hrs by FMCA in absence of TRAIL
AGS [5] = assay: Induction of DR4 mRNA expression in human TRAIL-resistant AGS cells at 125 nM by reat-time RT-PCR analysis relative to GADPH
AGS [6] = assay: Cytotoxicity against human TRAIL-resistant AGS cells at 125 nM after 24 hrs by FMCA in presence of TRAIL
AGS [7] = assay: Induction of DR5 mRNA expression in human TRAIL-resistant AGS cells at 250 nM by reat-time RT-PCR analysis relative to GADPH
AGS [8] = assay: Cytotoxicity against human TRAIL-resistant AGS cells at 125 nM after 24 hrs by FMCA in absence of TRAIL
AGS [9] = assay: Induction of DR4 mRNA expression in human TRAIL-resistant AGS cells at 500 nM by reat-time RT-PCR analysis relative to GADPH
AGS [10] = assay: Induction of DR5 mRNA expression in human TRAIL-resistant AGS cells at 125 nM by reat-time RT-PCR analysis relative to GADPH
AGS [11] = assay: Induction of DR4 mRNA expression in human TRAIL-resistant AGS cells at 250 nM by reat-time RT-PCR analysis relative to GADPH
AGS [12] = assay: Induction of DR5 mRNA expression in human TRAIL-resistant AGS cells at 500 nM by reat-time RT-PCR analysis relative to GADPH

Q: For `CC(=O)O[C@H]1[C@H](O[C@@H]2[C@@H](O)[C@H](C)O[C@@H](O[C@H]3[C@H](O[C@H]4CC[C@@]5(C)[C@@H](CC[C@]6(C)[C@@H]5CC=C5[C@@H]7CC(C)(C)CCC7(C(=O)O)CC[C@]56C)[C@]4(C)CO)OC[C@H](O)[C@@H]3O)[C@@H]2O)OC[C@@H](O)[C@@H]1O` (stereo partly specified), which Activity (AGS [1]) is on record?
A: The Activity was 45%.

Q: And the Activity (AGS [2])?
A: The Activity was “Active”.

Q: How did the Activity (AGS [2]) turn out when `CC(=O)O[C@@H]1CO[C@@H](O[C@@H]2[C@@H](O)[C@H](C)O[C@@H](O[C@H]3[C@H](O[C@H]4CC[C@@]5(C)[C@@H](CC[C@]6(C)[C@@H]5CC=C5[C@@H]7CC(C)(C)CCC7(C(=O)O)CC[C@]56C)[C@]4(C)CO)OC[C@H](O)[C@@H]3O)[C@@H]2O)[C@H](O)[C@H]1O` (stereo partly specified) was run?
A: Its Activity is “Active”.

Q: With `CC(=O)O[C@@H]1[C@@H](O)[C@H](O[C@@H]2[C@@H](O)[C@H](C)O[C@@H](O[C@H]3[C@H](O[C@H]4CC[C@@]5(C)[C@@H](CC[C@]6(C)[C@@H]5CC=C5[C@@H]7CC(C)(C)CCC7(C(=O)O)CC[C@]56C)[C@]4(C)CO)OC[C@H](O)[C@@H]3O)[C@@H]2O)OC[C@H]1OC(C)=O` (stereo partly specified) as the compound, how does the Activity (AGS [2]) read?
A: The Activity was “Active”.

Q: `CC(=O)O[C@H]1[C@H](O[C@@H]2[C@@H](O)[C@H](C)O[C@@H](O[C@H]3[C@H](O[C@H]4CC[C@@]5(C)[C@@H](CC[C@]6(C)[C@@H]5CC=C5[C@@H]7CC(C)(C)CCC7(C(=O)O)CC[C@]56C)[C@]4(C)CO)OC[C@H](O)[C@@H]3O)[C@@H]2O)OC[C@@H](OC(C)=O)[C@@H]1O` (stereo partly specified) was tested. Which Activity (AGS [2]) did it give?
A: The Activity was “Active”.

Q: `O=c1cc(-c2ccc(O)c(O)c2)oc2cc(O)cc(O)c12` [LUTEOLIN] was tested. Which Activity (AGS [2]) did it give?
A: The Activity was 70%.

Q: Which results are given for `CO[C@H]1[C@H](O)[C@H](O[C@H]2CC[C@@]3(C)[C@H](CC[C@@H]4[C@@H]3CC[C@]3(C)[C@@H](C5=CC(=O)OC5)CC[C@]43O)C2)O[C@@H](C)[C@@H]1O` [NERIIFOLIN]?
A: Activity (AGS [3]): 36%; Activity (AGS [4]): 79%

Q: Which “fold change (FC)” value (AGS [5]) does the source give for `CO[C@H]1[C@H](O)[C@H](O[C@H]2CC[C@@]3(C)[C@@H](CC[C@@H]4[C@@H]3CC[C@]3(C)[C@@H](C5=CC(=O)OC5)CC[C@]43O)C2)O[C@@H](C)[C@@H]1O` [THEVEFOLIN] here?
A: The value was 1.8.

Q: And the Activity (AGS [6])?
A: The Activity was 46%.

Q: And the “fold change (FC)” value (AGS [7])?
A: Its value is 1.6.

Q: And the Activity (AGS [8])?
A: The Activity was 65%.

Q: What about the “fold change (FC)” value (AGS [9]) of the same compound?
A: Its value is 3.6.

Q: And the “fold change (FC)” value (AGS [10])?
A: Its value is 1.2.

Q: What about the “fold change (FC)” value (AGS [11]) of the same compound?
A: Its value is 3.3.

Q: And the “fold change (FC)” value (AGS [12])?
A: The value was 1.8.
